Source: PubChem BioAssay AID330 (DTP/NCI, 2004)
Where “and” joins values, the source holds several entries; their conditions need not be identical. Equal values may be shown once. Toxic doses and inconclusive results are not listed.

Tested on: P388 leukemia ip, CD2F1 mice, survival T/C
Assay: NCI In Vivo Anticancer Drug Screen. Data for tumor model P388 Leukemia (intraperitoneal) in CD2F1 (CDF1) mice
Conditions: endpoint: median survival time, higher = longer survival
Summary of the method: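 Mice carrying the transplanted tumor received test compound or vehicle. Survival was recorded in each group, and the value is the treated-group measurement divided by that of the vehicle-treated control group.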

[1] = dose: 12.5 mg/kg/injection, schedule: Q01DX009 (ip), vehicle: saline with Tween-80
[2] = dose: 25.0 mg/kg/injection, schedule: Q01DX009 (ip), vehicle: saline with Tween-80
[3] = dose: 50.0 mg/kg/injection, schedule: Q01DX009 (ip), vehicle: saline with Tween-80
[4] = dose: 100.0 mg/kg/injection, schedule: Q01DX009 (ip), vehicle: saline with Tween-80
[5] = dose: 200.0 mg/kg/injection, schedule: Q01DX009 (ip), vehicle: saline with Tween-80
[6] = dose: 50.0 mg/kg/injection, schedule: Q01DX009 (ip), vehicle: saline
[7] = dose: 100.0 mg/kg/injection, schedule: Q01DX009 (ip), vehicle: saline
[8] = dose: 50.0 mg/kg/injection, schedule: Q01DX009 (ip), vehicle: Klucel (hydroxypropylcellulose) (HPC)
[9] = dose: 100.0 mg/kg/injection, schedule: Q01DX009 (ip), vehicle: Klucel (hydroxypropylcellulose) (HPC)
[10] = dose: 200.0 mg/kg/injection, schedule: Q01DX009 (ip), vehicle: Klucel (hydroxypropylcellulose) (HPC)
[11] = dose: 200.0 mg/kg/injection, schedule: Q01DX009 (ip), vehicle: saline
[12] = dose: 60.0 mg/kg/injection, schedule: Q01DX005 (ip), vehicle: saline with Tween-80
[13] = dose: 120.0 mg/kg/injection, schedule: Q01DX005 (ip), vehicle: saline with Tween-80
[14] = dose: 240.0 mg/kg/injection, schedule: Q01DX005 (ip), vehicle: saline with Tween-80

In the case of `CN(C)C1CS(=O)(=O)C1c1ccccc1` (stereo not given), the T/C [1] is reported as 100 % of control and 110 % of control, the T/C [2] is reported as 110 % of control and 95 % of control and the T/C [3] is reported as 112 % of control and 95 % of control. The T/C [4] was 102 % of control and 103 % of control and 97 % of control and the T/C [5] was 102 % of control.

With `CN(C)CC(CN(C)C)C(=O)/C=C/c1ccc2c(c1)OCO2` the T/C (dose: 0.78 mg/kg/injection, schedule: Q01DX005 (ip), vehicle: Klucel (hydroxypropylcellulose) (HPC)) was 112 % of control, the T/C (dose: 1.56 mg/kg/injection, schedule: Q01DX005 (ip), vehicle: Klucel (hydroxypropylcellulose) (HPC)) was 104 % of control and the T/C (dose: 3.12 mg/kg/injection, schedule: Q01DX005 (ip), vehicle: Klucel (hydroxypropylcellulose) (HPC)) was 104 % of control.

For `COc1c2c(nc3ccccc13)-c1cc3c(c(=O)n1C2)COC(=O)C3(O)CC(=O)N1CCOCC1` (stereo not given), the T/C (dose: 12.5 mg/kg/injection, schedule: Q01DX009 (ip), vehicle: saline) was 150 % of control, the T/C [6] was 160 % of control and the T/C [7] was 161 % of control. For the same compound, the T/C (dose: 100.0 mg/kg/injection, schedule: Q01DX009 (ip), vehicle: suspension in saline) was 169 % of control and the T/C (dose: 200.0 mg/kg/injection, schedule: Q01DX009 (ip), vehicle: suspension in saline) was 104 % of control.

With `COc1ccc2c(c1)nc1c([n+]2/N=C(\[O-])CCN(C)C)-c2cccc3cccc-1c23` the T/C [8] was 110 % of control, the T/C [9] was 111 % of control and the T/C [10] was 116 % of control.

In the case of `CC(C(=O)O)S(=O)(=O)O` (stereo not given), the T/C (dose: 20.0 mg/kg/injection, schedule: Q01DX009 (ip), vehicle: saline with Tween-80) is reported as 100 % of control and the T/C (dose: 40.0 mg/kg/injection, schedule: Q01DX009 (ip), vehicle: saline with Tween-80) is reported as 96 % of control.

For `COc1ccc(C(O)c2ccc(OC)c(OC)c2)cc1OC`, the T/C (dose: 25.0 mg/kg/injection, schedule: Q01DX009 (ip), vehicle: other) was 100 % of control, the T/C (dose: 50.0 mg/kg/injection, schedule: Q01DX009 (ip), vehicle: other) was 100 % of control and the T/C (dose: 100.0 mg/kg/injection, schedule: Q01DX009 (ip), vehicle: other) was 96 % of control. The T/C (dose: 200.0 mg/kg/injection, schedule: Q01DX009 (ip), vehicle: other) was 89 % of control and the T/C (dose: 400.0 mg/kg/injection, schedule: Q01DX009 (ip), vehicle: other) was 89 % of control.

For `COc1cc(C(=O)C[n+]2ccccc2)ccc1O`, the T/C (dose: 50.0 mg/kg/injection, schedule: Q04DX003 (ip), vehicle: saline with Tween-80) was 100 % of control, the T/C (dose: 100.0 mg/kg/injection, schedule: Q04DX003 (ip), vehicle: saline with Tween-80) was 100 % of control and the T/C (dose: 200.0 mg/kg/injection, schedule: Q04DX003 (ip), vehicle: saline with Tween-80) was 100 % of control.

With `O=C(NC[N+]12CCO[B-]1(c1cccc(Cl)c1)OCC2)c1ccccc1O` (stereo not given) the T/C (dose: 50.0 mg/kg/injection, schedule: Q01DX005 (ip), vehicle: Klucel (hydroxypropylcellulose) (HPC)) was 104 % of control, the T/C (dose: 100.0 mg/kg/injection, schedule: Q01DX005 (ip), vehicle: Klucel (hydroxypropylcellulose) (HPC)) was 104 % of control and the T/C (dose: 200.0 mg/kg/injection, schedule: Q01DX005 (ip), vehicle: Klucel (hydroxypropylcellulose) (HPC)) was 96 % of control.

In the case of `CC1=CC(=C2C=C(C)C(=O)C(C)=C2)C=C(C)C1=O`, the T/C [7] is reported as 97 % of control and 98 % of control, the T/C [11] is reported as 91 % of control and 95 % of control and the T/C (dose: 400.0 mg/kg/injection, schedule: Q01DX009 (ip), vehicle: saline) is reported as 93 % of control and 94 % of control.

With `COc1ccc(C(=O)c2ccccc2)c(OC(=O)Nc2c(Cl)cccc2Cl)c1` the T/C [12] was 93 % of control, the T/C [13] was 107 % of control and the T/C [14] was 88 % of control.

`O=C(N=C(N=C(c1ccccc1)N1CCCCC1)c1ccccc1)c1ccccc1` was tested, and the T/C [3] was 96 % of control, the T/C [4] was 93 % of control and the T/C [5] was 95 % of control.

With `CC(C)=CCCC(C)(OC1OC(COC2OCC(O)C(O)C2O)C(O)C(O)C1O)C1CCC2(C)C1C(O)CC1C3(C)CCC(OC4OC(CO)C(O)C(O)C4OC4OC(CO)C(O)C(O)C4O)C(C)(C)C3CCC12C` (stereo not given) the T/C (dose: 18.75 mg/kg/injection, schedule: Q01DX009 (ip), vehicle: Klucel (hydroxypropylcellulose) (HPC)) was 98 % of control, the T/C (dose: 37.5 mg/kg/injection, schedule: Q01DX009 (ip), vehicle: Klucel (hydroxypropylcellulose) (HPC)) was 100 % of control and the T/C (dose: 75.0 mg/kg/injection, schedule: Q01DX009 (ip), vehicle: Klucel (hydroxypropylcellulose) (HPC)) was 92 % of control. The T/C (dose: 150.0 mg/kg/injection, schedule: Q01DX009 (ip), vehicle: Klucel (hydroxypropylcellulose) (HPC)) was 92 % of control.

For `CCC(=O)Nc1ccc(N)cc1`, the T/C (dose: 100.0 mg/kg/injection, schedule: Q04DX003 (ip), vehicle: saline) was 98 % of control and the T/C (dose: 200.0 mg/kg/injection, schedule: Q04DX003 (ip), vehicle: saline) was 97 % of control.

For `Cc1c(C)c2ccc(N(C)C)cc2[nH]c1=O`, the T/C [8] was 113 % of control, the T/C [9] was 106 % of control and the T/C [10] was 106 % of control.

With `Oc1ccccc1O.[O-]c1ccccc1[O-].[O-]c1ccccc1[O-].[O]=[V+2]` the T/C (dose: 5.0 mg/kg/injection, schedule: Q01DX009 (ip), vehicle: saline) was 100 % of control, the T/C (dose: 5.0 mg/kg/injection, schedule: Q04DX003 (ip), vehicle: saline) was 95 % of control and the T/C (dose: 10.0 mg/kg/injection, schedule: Q01DX009 (ip), vehicle: saline) was 90 % of control. For the same compound, the T/C (dose: 10.0 mg/kg/injection, schedule: Q04DX003 (ip), vehicle: saline) was 118 % of control and the T/C (dose: 20.0 mg/kg/injection, schedule: Q04DX003 (ip), vehicle: saline) was 100 % of control.

For `CCOC(=O)CC(=O)N(c1ccc(OC)cc1)C(C(=O)OC)c1ccccc1` (stereo not given), the T/C [12] was 101 % of control, the T/C [13] was 104 % of control and the T/C [14] was 104 % of control.

For `C1=CC=CCC=C1`, the T/C [1] was 120 % of control.

In the case of `CCOC(Cn1nc(SC)nc1N)OCC`, the T/C (dose: 100.0 mg/kg/injection, schedule: Q04DX002 (ip), vehicle: water) is reported as 108 % of control, the T/C (dose: 200.0 mg/kg/injection, schedule: Q04DX002 (ip), vehicle: water) is reported as 104 % of control and the T/C (dose: 400.0 mg/kg/injection, schedule: Q04DX002 (ip), vehicle: water) is reported as 109 % of control.

For `c1nc(NCCCN2CCOCC2)c2c3c(sc2n1)CCCC3`, the T/C (dose: 50.0 mg/kg/injection, schedule: Q01DX005 (ip), vehicle: saline with Tween-80) was 109 % of control, the T/C (dose: 100.0 mg/kg/injection, schedule: Q01DX005 (ip), vehicle: saline with Tween-80) was 101 % of control and the T/C (dose: 200.0 mg/kg/injection, schedule: Q01DX005 (ip), vehicle: saline with Tween-80) was 100 % of control.

With `CNc1ccc([N+](=O)[O-])cc1C(=O)OC` the T/C [1] was 99 % of control, the T/C [2] was 98 % of control and the T/C [3] was 102 % of control.

For `CCOC(=O)C1=C(C(=O)c2ccc(OC)cc2)C(c2ccc([N+](=O)[O-])cc2)C(C(=O)c2ccc(OC)cc2)=C(C(=O)OCC)N1`, the T/C [12] was 89 % of control, the T/C [13] was 89 % of control and the T/C [14] was 93 % of control.

`[N-]=[N+]=NC(=O)c1cnn(Cc2ccccc2)c1N` was tested, and the T/C (dose: 100.0 mg/kg/injection, schedule: Q01DX001 (ip), vehicle: saline with Tween-80) was 103 % of control and the T/C (dose: 200.0 mg/kg/injection, schedule: Q01DX001 (ip), vehicle: saline with Tween-80) was 101 % of control.

`CCOP(=O)(Nc1ccc(C)cc1)OCC` was tested, and the T/C (dose: 100.0 mg/kg/injection, schedule: Q01DX001 (ip), vehicle: saline) was 104 % of control, the T/C (dose: 200.0 mg/kg/injection, schedule: Q01DX001 (ip), vehicle: saline) was 109 % of control and the T/C (dose: 400.0 mg/kg/injection, schedule: Q01DX001 (ip), vehicle: saline) was 105 % of control.

In the case of `N[C@@H](C[C@H]1CCC(=O)[C@@H]2O[C@H]12)C(=O)O`, the T/C (dose: 100.0 mg/kg/injection, schedule: Q04DX002 (ip), vehicle: saline) is reported as 100 % of control, the T/C (dose: 200.0 mg/kg/injection, schedule: Q04DX002 (ip), vehicle: saline) is reported as 98 % of control and the T/C (dose: 400.0 mg/kg/injection, schedule: Q04DX002 (ip), vehicle: saline) is reported as 108 % of control. For the same compound, the T/C (dose: 600.0 mg/kg/injection, schedule: Q04DX002 (ip), vehicle: saline) was 112 % of control.

`C/C=C\n1ccccc1=O` was tested, and the T/C [6] was 107 % of control, the T/C [7] was 113 % of control and the T/C [11] was 109 % of control.
